In ChEMBL document CHEMBL4308867, “Discovery of naldemedine: A potent and orally available opioid receptor antagonist for treatment of opioid-induced adverse effects” (Bioorg Med Chem Lett, 2019):

Experiments:
[1] = Chemical stability of the compound; assay type: physicochemical
[2] = Stability in human microsomes assessed as parent compound remaining at 0.5 uM measured after 0.5 hrs; assay type: ADME, Microsome; settings: read-out: Stability
[3] = Oral bioavailability in rat at 1 mg/kg administered as cassette dose; assay type: ADME, organism-based; settings: in vivo
[4] = Cmax in rat brain at 1 mg/kg, po administered as cassette dose; assay type: ADME, organism-based; design: dose 1 mg/kg, route oral
[5] = Brain to blood partition coefficient, Kp of the compound in rat at 1 mg/kg, po administered as cassette dose; assay type: ADME, organism-based
[6] = target: T1, Delta-type opioid receptor (Homo sapiens, UniProt P41143); test: Displacement of [3H]-DADLE from recombinant human delta-opioid receptor expressed in HEK293 cells; assay type: cell-based
[7] = Total clearance in rat at 1 mg/kg, po administered as cassette dose; assay type: ADME, organism-based; settings: in vivo
[8] = Stability in rat microsomes assessed as parent compound remaining at 0.5 uM measured after 0.5 hrs; assay type: ADME, Microsome; settings: read-out: Stability
Mu-type opioid receptor [9] = target: T2, Mu-type opioid receptor (Homo sapiens, UniProt P35372); test: Displacement of [3H]-DAMGO from recombinant human mu-opioid receptor expressed in CHOK1 cells; assay type: cell-based
[10] = Stability in plasma (unknown origin) assessed as parent compound remaining after 24 hrs; assay type: ADME, cell-free; settings: read-out: Stability
Mustela putorius furo [11] = test: In vivo antagonist activity at mu-opioid receptor in po dosed ferret assessed as inhibition of morphine-induced emesis/vomiting; assay type: functional
Rattus norvegicus [12] = test: Selectivity ratio of ED50 for inhibition of morphine-induced analgesia in po dosed rat to ED50 for inhibition of morphine-induced constipation in po dosed rat; assay type: functional
Rattus norvegicus [13] = species: Rattus norvegicus; test: […]; assay type: functional; settings: po
[14] = Selectivity ratio of ED50 for inhibition of morphine-induced analgesia in po dosed rat to ED50 for inhibition of morphine-induced emesis/vomiting in po dosed ferret; assay type: functional
Mu-type opioid receptor [15] = target: T2, Mu-type opioid receptor; test: Antagonist activity at mu-opioid receptor (unknown origin) by [35S]-GTPgammaS binding assay; assay type: functional
[16] = target: T1, Delta-type opioid receptor; test: Antagonist activity at delta-opioid receptor (unknown origin) by [35S]-GTPgammaS binding assay; assay type: functional
Rattus norvegicus [17] = test: Antianalgesic activity in po dosed rat assessed as inhibition of morphine-induced analgesia by tail-flick test; assay type: functional
[18] = Drug metabolism assessed as formation of 14-O-acyl form and 7-acyl form mixture
Rattus norvegicus [19] = test: In vivo antagonist activity at […] in sc dosed rat assessed as inhibition of morphine-induced constipation; assay type: functional
Mustela putorius furo [20] = test: In vivo antagonist activity at mu-opioid receptor in sc dosed ferret assessed as inhibition of morphine-induced emesis/vomiting; assay type: functional

T2 sequence (P35372 whole entry): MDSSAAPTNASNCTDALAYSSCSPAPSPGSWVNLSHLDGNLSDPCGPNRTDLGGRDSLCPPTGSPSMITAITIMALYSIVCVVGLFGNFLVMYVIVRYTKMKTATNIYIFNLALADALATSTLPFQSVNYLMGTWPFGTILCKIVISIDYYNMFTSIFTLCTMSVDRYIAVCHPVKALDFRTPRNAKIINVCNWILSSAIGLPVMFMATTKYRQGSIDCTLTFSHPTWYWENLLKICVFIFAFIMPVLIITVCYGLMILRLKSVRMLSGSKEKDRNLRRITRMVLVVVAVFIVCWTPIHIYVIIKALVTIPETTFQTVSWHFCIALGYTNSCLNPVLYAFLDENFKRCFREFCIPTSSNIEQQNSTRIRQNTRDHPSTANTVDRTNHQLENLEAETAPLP
T1 sequence (P41143 whole entry): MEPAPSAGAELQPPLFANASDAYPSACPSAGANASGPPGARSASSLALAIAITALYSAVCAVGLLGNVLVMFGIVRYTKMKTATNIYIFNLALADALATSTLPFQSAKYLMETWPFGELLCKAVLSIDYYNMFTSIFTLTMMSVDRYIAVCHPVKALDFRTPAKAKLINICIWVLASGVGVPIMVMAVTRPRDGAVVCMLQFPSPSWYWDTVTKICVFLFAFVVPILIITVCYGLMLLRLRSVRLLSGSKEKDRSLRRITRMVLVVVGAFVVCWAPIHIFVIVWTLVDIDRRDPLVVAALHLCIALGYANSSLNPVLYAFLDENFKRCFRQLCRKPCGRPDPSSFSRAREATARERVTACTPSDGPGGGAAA

Compound	Stability [1]	remaining at 0.5 h, 0.5 µM [2] [%]	bioavailability [3] [%]	Cmax [4] [ng/mL]	Kp [5]	Ki [6] [nM]	CL/F [7] [mL/min/kg]	remaining at 0.5 h, 0.5 µM [8] [%]	Ki (Mu-type opioid receptor [9]) [nM]	remaining at 24 h [10] [%]	ED50 (Mustela putorius furo [11]) [mg/kg]	Ratio ED50 (Rattus norvegicus [12])	ED50 (Rattus norvegicus [13]) [mg/kg]	Ratio ED50 [14]	Ke (Mu-type opioid receptor [15]) [nM]	Ke [16] [nM]	ED50 (Rattus norvegicus [17]) [mg/kg]	Drug metabolism [18]	ED50 (Rattus norvegicus [19]) [mg/kg]	ED50 (Mustela putorius furo [20]) [mg/kg]
O=C(Nc1ccc2cc[nH]c2c1)C1=C(O)[C@@H]2Oc3c(O)ccc4c3[C@@]23CCN(CC2CC2)[C@H](C4)[C@]3(O)C1	Stable	93	13	0.56	0.04	18.9	28	86	2.4	> 80	–	–	–	–	–	–	–	–	–	–
CC(C)(NC(=O)C1=C(O)[C@@H]2Oc3c(O)ccc4c3[C@@]23CCN(CC2CC2)[C@H](C4)[C@]3(O)C1)c1nc(-c2ccccc2)no1 [NALDEMEDINE]	Stable	73	29	1.3	0.03	0.91	20	76	1.1 to 1.13	> 80	0.03	>500	0.03	>1000	0.05	0.37	> 30	–	–	–
CC(C)(NC(=O)C1=C(O)[C@@H]2Oc3c(O)ccc4c3[C@@]23CCN(CC2CC2)[C@H](C4)[C@]3(O)C1)C(=O)O	Stable	–	0.52	0.055	0.04	11.8	28	–	46.1	> 80	–	–	–	–	–	–	–	–	–	–
Cc1n[nH]c2c1C[C@@]1(O)[C@H]3Cc4ccc(O)c5c4[C@@]1(CCN3CC1CC1)[C@H]2O5	–	98	26.9	2.2	0.25	1.2	199	81	24	–	–	–	–	–	–	–	–	–	–	–
CCC(=O)C1=C(O)[C@@H]2Oc3c(O)ccc4c3[C@@]23CCN(CC2CC2)[C@H](C4)[C@]3(O)C1	–	85	6.4	6.5	1.7	9.9	313	46	1.4	< 20	–	–	–	–	–	–	–	Metabolite detected	–	–
CC(C)NC(=O)C1=C(O)[C@@H]2Oc3c(O)ccc4c3[C@@]23CCN(CC2CC2)[C@H](C4)[C@]3(O)C1	Stable	95	50	–	–	2 to 7.4	41	88	3.4 to 5.2	> 80	0.04	19	0.57	266	6.2	3.8	10.7	–	–	–
COC(=O)C1(NC(=O)C2=C(O)[C@@H]3Oc4c(O)ccc5c4[C@@]34CCN(CC3CC3)[C@H](C5)[C@]4(O)C2)CC1	Stable	100	11	1.3	0.06	9.8	30	103	1.6	> 80	0.026	>175	0.57	>3846	4.1	7.6	> 100	–	–	–
O=C(Nc1ccccn1)C1=C(O)[C@@H]2Oc3c(O)ccc4c3[C@@]23CCN(CC2CC2)[C@H](C4)[C@]3(O)C1	Stable	98	55	5.6	0.05	6.8	25	97	9.8	> 80	–	–	–	–	–	–	–	–	–	–
O=C(C1=C(O)[C@@H]2Oc3c(O)ccc4c3[C@@]23CCN(CC2CC2)[C@H](C4)[C@]3(O)C1)N1CCCC1	Stable	99	18	3	0.22	7.4	102	24	4	> 80	–	–	–	–	–	–	–	–	–	–
COC(=O)C(C)(C)NC(=O)C1=C(O)[C@@H]2Oc3c(O)ccc4c3[C@@]23CCN(CC2CC2)[C@H](C4)[C@]3(O)C1	Stable	101	68	5.1	0.08	3.99	25	103	16.5	> 80	–	–	–	–	–	–	–	–	–	–
C[N@+]1(CC2CC2)CC[C@]23c4c5ccc(O)c4O[C@H]2C(=O)CC[C@@]3(O)[C@H]1C5.[Br-] [METHYLNALTREXONE BROMIDE]	–	–	–	–	–	–	–	–	–	–	–	–	–	–	56	1080	–	–	4.5	0.69
O=C(O)c1ccc2c3c([nH]c2c1)[C@@H]1Oc2c(O)ccc4c2[C@@]12CCN(CC1CC1)[C@H](C4)[C@]2(O)C3	–	98	0.1	0.023	0.03	0.62	71.8	97	18	–	–	–	–	–	–	–	–	–	–	–
CC(C)(NC(=O)C1=C(O)[C@@H]2Oc3c(O)ccc4c3[C@@]23CCN(CC2CC2)[C@H](C4)[C@]3(O)C1)C(=O)NS(C)(=O)=O	Stable	104	0.77	0.018	0.01	5.5	15	99	93.6	> 80	–	–	–	–	–	–	–	–	–	–
Cc1nc(N)nc2c1C[C@@]1(O)[C@H]3Cc4ccc(O)c5c4[C@@]1(CCN3CC1CC1)[C@H]2O5	–	92	42.5	4.6	0.31	2.1	220	58	8.6	–	–	–	–	–	–	–	–	–	–	–
O=C(Nc1ccccc1)C1=C(O)[C@@H]2Oc3c(O)ccc4c3[C@@]23CCN(CC2CC2)[C@H](C4)[C@]3(O)C1	Stable	89	57	–	–	6.8 to 20	36	78	1 to 4.1	> 80	0.04	17	0.99	413	3.2	3.6	16.5	–	–	–
O=C(O)c1ccc2c3c([nH]c2c1Cl)[C@@H]1Oc2c(O)ccc4c2[C@@]12CCN(CC1CC1)[C@H](C4)[C@]2(O)C3	–	97	0.2	0.032	0.03	1	18.1	100	19	–	–	–	–	–	–	–	–	–	–	–
CC(=O)C1=C(O)[C@@H]2Oc3c(O)ccc4c3[C@@]23CCN(CC2CC2)[C@H](C4)[C@]3(O)C1	–	95	4	5.8	1.1	31	233	80	0.95	< 20	–	–	–	–	–	–	–	Metabolite detected	–	–
O=C(NCc1ccccc1)C1=C(O)[C@@H]2Oc3c(O)ccc4c3[C@@]23CCN(CC2CC2)[C@H](C4)[C@]3(O)C1	Stable	94	46	12	0.17	16	61	14	1.1	> 80	–	–	–	–	–	–	–	–	–	–
N#Cc1ccc(NC(=O)C2=C(O)[C@@H]3Oc4c(O)ccc5c4[C@@]34CCN(CC3CC3)[C@H](C5)[C@]4(O)C2)cc1	Stable	103	12	1.3	0.03	11.1	8.5	92	5.1	> 80	–	–	–	–	–	–	–	–	–	–
Cc1noc(C(C)(C)NC(=O)C2=C(O)[C@@H]3Oc4c(O)ccc5c4[C@@]34CCN(CC3CC3)[C@H](C5)[C@]4(O)C2)n1	Stable	92	11	0.29	0.04	5.8	29	99	7.3	> 80	–	–	–	–	–	–	–	–	–	–
C[C@H](CO)NC(=O)C1=C(O)[C@@H]2Oc3c(O)ccc4c3[C@@]23CCN(CC2CC2)[C@H](C4)[C@]3(O)C1	Stable	–	3.4	0.21	0.05	18	27	–	19.4	> 80	–	–	–	–	–	–	–	–	–	–
